Measurements from patent publication US8889711B2, “Pyrazolopyridine derivatives as anticancer agent” (Pierre Fabre Medicament, priority 2009, dated 2014).

target: ALK kinase (Homo sapiens, UniProt Q9UM73); assay: Test to measure ALK kinase inhibition (GST-PLCγ1 substrate, anti-phosphotyrosine ELISA, luminescence); format: biochemical; conditions: ALK kinase 180 ng/ml, 250 μM ATP, 30 minutes at 30° C.
Summary of the method: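 GST-PLCγ1 substrate-coated plate; ALK at 180 ng/ml in Tris pH 7.5 buffer with MgCl2, DTT, β-glycerophosphate, orthovanadate and 250 μM ATP, 30 min at 30 °C, inhibitor typically 30 μM to 10 nM. Phosphotyrosine detected with HRP anti-phosphotyrosine antibody, luminescence read-out.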

ALK kinase, sequence (Q9UM73 19-1620): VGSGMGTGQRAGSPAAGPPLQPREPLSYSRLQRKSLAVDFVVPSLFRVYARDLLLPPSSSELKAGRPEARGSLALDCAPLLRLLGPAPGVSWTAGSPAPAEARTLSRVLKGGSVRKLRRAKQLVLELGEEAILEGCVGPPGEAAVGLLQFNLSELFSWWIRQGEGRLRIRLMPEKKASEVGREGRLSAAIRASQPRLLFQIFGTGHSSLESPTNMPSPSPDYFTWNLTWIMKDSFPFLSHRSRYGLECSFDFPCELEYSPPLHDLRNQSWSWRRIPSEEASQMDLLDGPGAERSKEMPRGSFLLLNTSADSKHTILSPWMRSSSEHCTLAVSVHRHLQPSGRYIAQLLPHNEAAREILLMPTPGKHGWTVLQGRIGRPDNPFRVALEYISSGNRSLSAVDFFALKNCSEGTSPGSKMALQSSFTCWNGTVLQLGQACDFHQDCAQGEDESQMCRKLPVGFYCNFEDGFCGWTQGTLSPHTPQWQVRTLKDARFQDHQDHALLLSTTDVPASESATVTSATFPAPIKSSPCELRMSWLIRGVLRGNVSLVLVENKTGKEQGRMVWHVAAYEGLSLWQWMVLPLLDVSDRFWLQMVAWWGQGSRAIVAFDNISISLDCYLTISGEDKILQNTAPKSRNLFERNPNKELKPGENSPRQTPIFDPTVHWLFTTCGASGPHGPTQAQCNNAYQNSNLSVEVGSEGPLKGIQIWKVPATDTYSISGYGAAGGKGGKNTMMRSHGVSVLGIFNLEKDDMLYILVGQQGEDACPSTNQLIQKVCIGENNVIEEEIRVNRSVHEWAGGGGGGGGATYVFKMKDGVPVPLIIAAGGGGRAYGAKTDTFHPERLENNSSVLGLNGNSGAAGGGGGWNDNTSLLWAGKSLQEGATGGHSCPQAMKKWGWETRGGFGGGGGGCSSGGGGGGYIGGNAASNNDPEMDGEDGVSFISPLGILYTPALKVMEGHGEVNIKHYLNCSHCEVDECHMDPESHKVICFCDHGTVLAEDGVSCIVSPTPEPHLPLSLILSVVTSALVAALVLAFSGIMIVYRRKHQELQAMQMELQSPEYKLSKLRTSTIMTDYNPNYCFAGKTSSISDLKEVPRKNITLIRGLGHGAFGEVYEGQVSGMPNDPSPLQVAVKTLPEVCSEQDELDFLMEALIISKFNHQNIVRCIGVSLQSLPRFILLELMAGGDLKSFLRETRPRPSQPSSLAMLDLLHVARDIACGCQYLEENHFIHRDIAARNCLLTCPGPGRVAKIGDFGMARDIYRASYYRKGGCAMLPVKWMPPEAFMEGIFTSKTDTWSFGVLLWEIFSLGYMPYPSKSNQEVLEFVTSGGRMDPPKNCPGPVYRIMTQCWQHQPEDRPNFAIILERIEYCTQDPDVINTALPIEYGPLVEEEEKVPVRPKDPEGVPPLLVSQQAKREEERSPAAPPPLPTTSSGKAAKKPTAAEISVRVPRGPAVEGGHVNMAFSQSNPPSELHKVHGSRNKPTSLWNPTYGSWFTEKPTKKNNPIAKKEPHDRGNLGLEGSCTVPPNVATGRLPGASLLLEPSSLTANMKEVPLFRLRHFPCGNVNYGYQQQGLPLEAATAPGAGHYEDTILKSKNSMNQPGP

IC50 [µM]	SMILES
1 to 10	CN1CCN(Cc2ccc(-c3c(C#N)c(-c4ccc(O)cc4)nc4[nH]ncc34)cc2)CC1 [Compound 47]
0.1 to 1	N#Cc1c(-c2ccc(O)cc2)nc2[nH]ncc2c1-c1cccs1 [Compound 52]
< 0.1	Cc1n[nH]c2nc(-c3c(F)cc(O)cc3F)c(C#N)c(-c3ccc(N4CCNCC4)cc3)c12 [Compound 154]
0.1 to 1	Cc1cc(-c2nc3[nH]nc(-c4cccs4)c3c(-c3ccc(N4CCNCC4)cc3)c2C#N)cc(C)c1O [Compound 283]
0.1 to 1	N#Cc1c(-c2ccc(O)cc2)nc2[nH]ncc2c1-c1nccs1 [Compound 48]
< 0.1	CCN(CC)CCSc1ccc(-c2c(C#N)c(-c3ccc(O)cc3F)nc3[nH]nc(C)c23)o1 [Compound 132]
0.1 to 1	CC(C)(C)C(=O)Oc1ccc(-c2nc3[nH]nc(N)c3c(-c3ccc(N4CCNCC4)cc3)c2C#N)c(F)c1 [Compound 301]
1 to 10	N#Cc1c(-c2ccc(CO)cc2)nc2[nH]nc(-c3ccc(C(F)(F)F)cc3)c2c1-c1ccc(N2CCNCC2)cc1 [Compound 291]
< 0.1	COC(=O)c1c(-c2ccc(O)cc2F)nc2[nH]nc(C)c2c1-c1ccc(N2CCNCC2)cc1 [Compound 284]

More lines, now with the values behind:

SMILES	IC50 [µM]
Cc1n[nH]c2nc(-c3ccc(O)cc3F)c(C#N)c(-c3ccc(N4CCNCC4)nc3)c12 [Compound 131]	0.1 to 1
Cc1c(C#N)c(-c2ccc(O)cc2)nc2[nH]nc(-c3ccc(N4CCNCC4)cc3)c12 [Compound 96]	0.1 to 1
Cc1n[nH]c2nc(-c3ccc(O)cc3F)c(C#N)c(-c3csc(C4CCNCC4)n3)c12 [Compound 165]	0.1 to 1
N#Cc1c(-c2ccoc2)nc2[nH]nc(-c3ccco3)c2c1-c1ccc(N2CCNCC2)cc1 [Compound 272]	1 to 10
Cc1n[nH]c2nc(-c3c(F)ccc(F)c3F)c(C#N)c(-c3ccc(N4CCC(N)CC4)o3)c12 [Compound 253]	0.1 to 1
N#Cc1c(-c2cccc(O)c2)nc2[nH]nc(-c3cccs3)c2c1-c1ccc(N2CCNCC2)cc1 [Compound 247]	0.1 to 1
N#Cc1c(-c2ccc(O)cc2F)nc2[nH]nc(-c3ccc(F)cc3)c2c1-c1ccc(N2CCNCC2)cc1 [Compound 218]	< 0.1
N#Cc1cc2c(N)n[nH]c2nc1-c1ccc(O)cc1F [Compound 105]	0.1 to 1
COc1cc(-c2c(C#N)c(-c3ccc(O)cc3F)nc3[nH]nc(N)c23)ccc1N1CCNCC1 [Compound 202]	0.1 to 1
N#Cc1c(-c2ccc(O)cc2)nc2[nH]ncc2c1-c1cccc(N2CCNCC2)c1 [Compound 68]	0.1 to 1
Cc1n[nH]c2nc(-c3ccc(O)cc3F)c(C#N)c(-c3cnc(N4CCN(C)CC4)s3)c12 [Compound 167]	0.1 to 1
Cc1n[nH]c2nc(-c3ccc(O)cc3F)c(C#N)c(-c3ccc(N4CCC(O)CC4)o3)c12 [Compound 153]	< 0.1
Cc1cc(-c2nc3[nH]nc(N)c3c(-c3ccc(N4CCNCC4)cc3)c2C#N)ccc1O [Compound 187]	< 0.1
Cc1n[nH]c2nc(-c3ccc(O)cc3F)c(C#N)c(-c3ccc(N4CCC(N5CCN(C)CC5)CC4)o3)c12 [Compound 142]	< 0.1

test system: karpas 299 cells; assay: Measurement of inhibition of cell proliferation (Karpas), ATPlite; format: cell-based; conditions: 72 hours
Summary of the method: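 Karpas 299 cells seeded at 300 000 cells/ml, treated on Day 1 and incubated at 37° C under 5% CO2 for 72 h. Viability measured on Day 4 by ATPlite luminescence of ATP from viable cells. IC50 derived by non-linear sigmoid dose-response regression with variable Hill slope.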

IC50 [µM]	SMILES
1 to 10	Cc1n[nH]c2nc(-c3ccc(O)cc3F)c(C#N)c(-c3csc(C4CCNCC4)n3)c12 [Compound 165]
1 to 10	N#Cc1c(-c2cccc(O)c2)nc2[nH]nc(-c3cccs3)c2c1-c1ccc(N2CCNCC2)cc1 [Compound 247]
> 10	Cc1n[nH]c2nc(-c3ccc(O)cc3F)c(C#N)c(-c3ccc(N4CCC(N5CCN(C)CC5)CC4)o3)c12 [Compound 142]

same assay, conditions: Homo sapiens, KARPAS-299, 72 h

IC50 [µM]	SMILES
1 to 10	CN1CCN(Cc2ccc(-c3c(C#N)c(-c4ccc(O)cc4)nc4[nH]ncc34)cc2)CC1 [Compound 47]
1 to 10	N#Cc1c(-c2ccc(O)cc2)nc2[nH]ncc2c1-c1cccs1 [Compound 52]
0.1 to 1	Cc1n[nH]c2nc(-c3c(F)cc(O)cc3F)c(C#N)c(-c3ccc(N4CCNCC4)cc3)c12 [Compound 154]
1 to 10	Cc1cc(-c2nc3[nH]nc(-c4cccs4)c3c(-c3ccc(N4CCNCC4)cc3)c2C#N)cc(C)c1O [Compound 283]
1 to 10	N#Cc1c(-c2ccc(O)cc2)nc2[nH]ncc2c1-c1nccs1 [Compound 48]
> 10	CCN(CC)CCSc1ccc(-c2c(C#N)c(-c3ccc(O)cc3F)nc3[nH]nc(C)c23)o1 [Compound 132]
> 10	CC(C)(C)C(=O)Oc1ccc(-c2nc3[nH]nc(N)c3c(-c3ccc(N4CCNCC4)cc3)c2C#N)c(F)c1 [Compound 301]
1 to 10	N#Cc1c(-c2ccc(CO)cc2)nc2[nH]nc(-c3ccc(C(F)(F)F)cc3)c2c1-c1ccc(N2CCNCC2)cc1 [Compound 291]
< 0.1	COC(=O)c1c(-c2ccc(O)cc2F)nc2[nH]nc(C)c2c1-c1ccc(N2CCNCC2)cc1 [Compound 284]

Continued, molecule first:

SMILES	IC50 [µM]
Cc1n[nH]c2nc(-c3ccc(O)cc3F)c(C#N)c(-c3ccc(N4CCNCC4)nc3)c12 [Compound 131]	1 to 10
Cc1c(C#N)c(-c2ccc(O)cc2)nc2[nH]nc(-c3ccc(N4CCNCC4)cc3)c12 [Compound 96]	1 to 10
N#Cc1c(-c2ccoc2)nc2[nH]nc(-c3ccco3)c2c1-c1ccc(N2CCNCC2)cc1 [Compound 272]	1 to 10
Cc1n[nH]c2nc(-c3c(F)ccc(F)c3F)c(C#N)c(-c3ccc(N4CCC(N)CC4)o3)c12 [Compound 253]	1 to 10
N#Cc1c(-c2ccc(O)cc2F)nc2[nH]nc(-c3ccc(F)cc3)c2c1-c1ccc(N2CCNCC2)cc1 [Compound 218]	1 to 10
N#Cc1cc2c(N)n[nH]c2nc1-c1ccc(O)cc1F [Compound 105]	1 to 10
COc1cc(-c2c(C#N)c(-c3ccc(O)cc3F)nc3[nH]nc(N)c23)ccc1N1CCNCC1 [Compound 202]	> 10
N#Cc1c(-c2ccc(O)cc2)nc2[nH]ncc2c1-c1cccc(N2CCNCC2)c1 [Compound 68]	1 to 10
Cc1n[nH]c2nc(-c3ccc(O)cc3F)c(C#N)c(-c3cnc(N4CCN(C)CC4)s3)c12 [Compound 167]	1 to 10
Cc1n[nH]c2nc(-c3ccc(O)cc3F)c(C#N)c(-c3ccc(N4CCC(O)CC4)o3)c12 [Compound 153]	1 to 10
Cc1cc(-c2nc3[nH]nc(N)c3c(-c3ccc(N4CCNCC4)cc3)c2C#N)ccc1O [Compound 187]	1 to 10
